Like-named read-outs stand apart in the source and are kept apart here. *1 amine or outer side, *2 acyl side, *3 side chain or, on linkers, in order; H or OH if unused. Where a SMILES comes first, the peptide text is derived from it. Bridges are numbered along the chain shown (N, C = ends). [ ]: non-standard residue; d: D form. NHCH2CMe2S = CC(C)(CN[*:1])S[*:2]
Columns and labels:
[1] = Serum stability; format: in vitro ADME; settings: rat
Protocol: (§1) Purified DP-7-11 (1 mg/mL) was dissolved in 0.1 M ammonium bicarbonate (NH4HCO3) buffer. To prepare a stock trypsin solution, 1 mg trypsin was dissolved in 50 mL of 0.1 M NH4HCO3 buffer. Equal volumes of the stock trypsin solution (62.5 μL) and DP-7-11 solution (62.5 μL) were incubated in 375 μL of 0.1M NH4HCO3 buffer in a 37° C. water bath. Aliquots of 100 μL were collected from this mixture at set time intervals of 0 min, up to 24 hours. Ice-cold acetonitrile containing 0.5% TFA was used to quench the reaction between DP-7-11 and trypsin at predetermined intervals, and just prior to HPLC or LC-MS analysis. The quenched samples were vortexed for 10 minutes followed by centrifugation at 12,000 rpm for a further 15 minutes. Supernatant was sampled and analysed using analytical RP-HPLC or LC-MS. Samples without trypsin acted as negative controls and were sampled at two intervals of 0 hour and 6 hours.
Serum stability of DP-7-11 was also performed. In this regard, rat serum replaced trypsin and NH4HCO3 buffer. Water was used as negative control in place of serum, with the stability study performed in an identical fashion to the trypsin study. […] DP-11-00 and DP-11-06 were tested in a similar manner.
(§2) As used in this serum and trypsin stability discussion, the term ‘degraded completely’ relates to the relevant compound being completely absent when tested. In other words, the compound being tested is not observed when tested.
This appears to indicate the improved metabolic stability of the present invention.
(§3) The serum and trypsin stability of DP-7-11 and DP-7-12 were tested (in some instances again) using LC-MS. The LC-MS utilized in this study was more sensitive than the LC-MS utilized in the above tests.

[2] = biological target: T1, trypsin (Bos taurus, UniProt P00760); test: Trypsin stability; format: in vitro ADME
T1 sequence (P00760 24-246): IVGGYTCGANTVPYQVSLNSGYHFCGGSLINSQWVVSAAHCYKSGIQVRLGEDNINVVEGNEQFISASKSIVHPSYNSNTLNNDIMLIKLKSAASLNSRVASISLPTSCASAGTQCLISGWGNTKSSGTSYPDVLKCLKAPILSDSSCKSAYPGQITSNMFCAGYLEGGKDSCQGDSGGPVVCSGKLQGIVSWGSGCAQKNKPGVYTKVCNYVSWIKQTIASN
Protocol: as §1, §2, §3

[3] = biological target: MOP (Homo sapiens, UniProt P35372); test: In vitro cAMP activity at MOP (Table 10); format: cell-based; settings: cAMP inhibition, four-parameter regression
Sequence of MOP (P35372 whole entry): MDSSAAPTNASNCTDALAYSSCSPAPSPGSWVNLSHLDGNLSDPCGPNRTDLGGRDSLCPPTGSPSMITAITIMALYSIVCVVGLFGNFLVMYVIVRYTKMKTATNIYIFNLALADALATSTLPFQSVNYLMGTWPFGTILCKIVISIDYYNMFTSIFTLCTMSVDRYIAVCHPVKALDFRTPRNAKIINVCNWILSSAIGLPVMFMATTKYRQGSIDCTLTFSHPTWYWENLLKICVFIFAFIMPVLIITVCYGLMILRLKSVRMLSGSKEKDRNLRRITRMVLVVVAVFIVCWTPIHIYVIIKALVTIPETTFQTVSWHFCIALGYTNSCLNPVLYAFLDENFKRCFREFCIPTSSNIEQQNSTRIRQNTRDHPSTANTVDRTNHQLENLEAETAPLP
Protocol: The CP series compounds were assayed as follows: The assay was performed using a 96 well ½ area plate. The different cAMP standard solutions (3 μL/well) were plated in duplicate. The different concentrations of drug (3 μL/well), and control solutions (3 μL/well) were plated in triplicate. Following this, the acceptor bead mixture (3 μL/well) was added to the respective sets—either cAMP standard curve or the treatment. This was covered and incubated on the orbital shaker for 60 minutes at 37° C. Then, the donor bead mixture (10 μL/well) was added to each well. This was incubated at room temperature overnight on the orbital shaker.
For DP-11-06 the assay was carried out in the same way as for the CP compounds except it was incubated for 30 mins at 37° C.
For the CP series compounds and DP-11-06, the Ensight® Multimode Plate Reader was used to quantify the fluorescence units of each plate. Before reading, each plate was centrifuged at 280 g for 30 seconds. Using GraphPad Prism7® Software, cAMP concentrations were determined by fit spline/LOWESS analysis. The cAMP standard curve was used for interpolation at this point. The cAMP concentrations were then normalized to the highest cAMP concentration recorded and analyzed by one-way ANOVA for multiple comparisons. The IC50 for each compound was then calculated using GraphPad Prism7® with non-linear regression analysis using four parameter curve fitting.
In this regard, a different regression analysis method was adopted on the above cAMP experiments. Particularly, a new non-linear regression (four-parameter) was adopted to better account for hill slope, thereby improving the regression fit.

SMILES | half-life at 0.125 mg/mL ([1]; 37° C., LC-MS (Table 8), read-out: Serum half-life (converted)) | half-life at 0.125 mg/mL ([1]; more sensitive LC-MS (Table 8a), read-out: Incubation in serum: half life) | metabolised at 6 h, 0.125 mg/mL ([1]; up to 6 h, more sensitive LC-MS, read-out: Degradation in serum) | Incubation in trypsin: peptide remaining ([2]; at 30 min, more sensitive LC-MS) | remaining at 0.5 h, 0.125 mg/mL ([2]; trypsin solution, at 30 min, more sensitive LC-MS, read-out: Incubation in trypsin: peptide remaining) | EC50 [3] | remaining at 1 h, 0.125 mg/mL ([1]; after 1 hr, read-out: Peptide still present in serum) | remaining at 2 h, 0.125 mg/mL ([1]; after 2 hours, read-out: Peptide still present in serum) | half-life at 0.125 mg/mL ([1]; more sensitive LC-MS (Table 8a), read-out: Incubation in serum: half-life) | Trypsin: complete degradation within ([2]; 37° C.)
CC1(C)CNC(=O)C[C@H](C(=O)N[C@@H](CCCNC(=N)N)C(=O)N[C@@H](CCCNC(=N)N)C(N)=O)NC(=O)[C@H](Cc2ccccc2)NC(=O)CNC(=O)[C@@H](NC(=O)[C@@H](N)Cc2ccc(O)cc2)CSS1 [DP-7-11, c(Tyr-SSa-Gly-Phe-D(Asp)-Arg-Arg)] | 6 h | > 6 h | ~10% | 25% remaining at | ~25% | > 10000 nM |  |  |  | 
CC1(C)CNC(=O)C[C@@H](NC(=O)[C@@H](N)Cc2ccc(O)cc2)C(=O)NCC(=O)N[C@@H](Cc2ccccc2)C(=O)N[C@H](C(=O)N[C@@H](CCCNC(=N)N)C(=O)N[C@@H](CCCNC(=N)N)C(N)=O)CSS1 [DP-7-12, c(Tyr-D(Asp)-Gly-Phe-SSa-Arg-Arg)] (H-Y[dD]GFCRR-NH2; linker 2-5 via NHCH2CMe2S) |  |  |  |  |  | 2.7 nM | ~67% | ~20% | ~0.75 h | within 30 min
